The values below come from publication PMC11513842, “Development of an orally bioavailable CDK12/13 degrader and induction of synthetic lethality with AKT pathway inhibition” (Cell Reports Medicine, 2024).

One may read the IC50 as the concentration needed to halve the response being measured. The term AUC(0-t) denotes the area under the concentration-time curve up to a stated or last time point. Read a high AUC(0-t) as more exposure. One may read the Cmax as the highest concentration seen after dosing. Broadly, the Tmax is the time from dosing to the highest level.

Where “and” joins values, the source holds several entries; their conditions need not be identical. Equal entries are not always repeated. Where two headings read alike, the source gives them in different places. Bounds are passed on as bounds.

For data set [1], the system named is VCaP cells. In words: Cell viability assay (CellTiter-Glo, 5 days). The class given is cell-based, human. Here is the method: (§1) Cells were seeded in 96-well plates and incubated at 37°C with 5% CO2 overnight. A series of compound dilutions were added into the cells. After 5 days incubation, cell proliferation was tested using the CellTiter-Glo assay (Promega) according to the manufacturer’s protocol. Luminescence was measured using the Infinite M1000 Pro plate reader (Tecan). Data analysis was conducted using GraphPad Prism software.
(ATP-based viability assays read luminescence as a measure of living cells.)

The subject of data set [2] is CDK12 and CDK13. The note with it: VCaP cells. Here is the method:
After treatment of varying conditions, cell lysates were prepared using RIPA buffer (ThermoFisher Scientific) supplemented with cOmplete protease inhibitor cocktail tablets (Sigma-Aldrich). The Pierce BCA Protein Assay Kit ([…]) was used to determine the protein concentrations. Proteins with an equal amount from each sample were loaded on NuPAGE 3–8% Tris-Acetate or 4–12% Bis-Tris protein gels (ThermoFisher Scientific) and subsequently transferred to membranes, which were blocked using 5% nonfat milk. Following blocking at room temperature for 1 h, the membrane was further incubated with varying primary antibodies at 4°C overnight. HRP-conjugated secondary antibodies were used for detection, and membrane imaging was conducted using an Odyssey Fc Imager (LI-COR Biosciences).

Data set [3] is described as follows: Pharmacokinetic profile in Sprague Dawley rats. The data set is classed as in vivo, rat. The note with it: SD rats.
Data set [4] relates to 22RV1. In words: Cell viability assay (CellTiter-Glo, 5 days). The class given is cell-based. Conditions: Homo sapiens, 120 h; 22RV1, 5 days of treatment, Figure 1F. Here is the method:
as §1

The test system of data set [5] is BPH-1. In words: Cell viability assay (CellTiter-Glo, 5 days). The data set is classed as cell-based. Conditions: Homo sapiens, 120 h; BPH-1, 5 days of treatment, Figure 1F. Here is the method: as §1
Data set [6] deals with CWR22RV1. In words: Cell viability assay (CellTiter-Glo, 5 days). The data set is classed as cell-based. The note with it: Homo sapiens, 120 h; CWR22RV1, 5 days of treatment, Figure 1F. Here is the method:
as §1

Data set [7] has as its system DU145. In words: Cell viability assay (CellTiter-Glo, 5 days). The class given is cell-based. Conditions: Homo sapiens, DU-145, 120 h; DU145, 5 days of treatment, Figure 1F. Here is the method:
as §1

The subject of data set [8] is LAPC4. In words: Cell viability assay (CellTiter-Glo, 5 days). Conditions: Homo sapiens, 120 h; LAPC4, 5 days of treatment, Figure 1F. The class given is cell-based. Here is the method:
as §1

The test system of data set [9] is MCF10A. In words: Cell viability assay (CellTiter-Glo, 5 days). The class given is cell-based. The note with it: Homo sapiens, MCF-10A, 120 h, 5 days of treatment, Figure 1F. Here is the method:
as §1

For data set [10], the system named is MCF12A. In words: Cell viability assay (CellTiter-Glo, 5 days). The data set is classed as cell-based. The note with it: Homo sapiens, MCF-12A, 120 h, 5 days of treatment, Figure 1F. Here is the method:
as §1

Data set [11] relates to MCF7. In words: Cell viability assay (CellTiter-Glo, 5 days). The data set is classed as cell-based. The note with it: Homo sapiens, 120 h; MCF7, 5 days of treatment, Figure 1F. Here is the method: as §1
The test system of data set [12] is MDA-MB-468. In words: Cell viability assay (CellTiter-Glo, 5 days). The note with it: Homo sapiens, 120 h; MDA-MB-468, 5 days of treatment, Figure 1F. The data set is classed as cell-based. Here is the method: as §1
The subject of data set [13] is MFM223. In words: Cell viability assay (CellTiter-Glo, 5 days). The class given is cell-based. The note with it: Homo sapiens, MFM-223, 120 h; MFM223, 5 days of treatment, Figure 1F. Here is the method:
as §1

For data set [14], the system named is PC3. In words: Cell viability assay (CellTiter-Glo, 5 days). The class given is cell-based. Conditions: Homo sapiens, PC-3, 120 h; PC3, 5 days of treatment, Figure 1F. Here is the method:
as §1

Data set [15] relates to PNT2. In words: Cell viability assay (CellTiter-Glo, 5 days). The class given is cell-based. The note with it: Homo sapiens, 120 h; PNT2, 5 days of treatment, Figure 1F. Here is the method: as §1
Data set [16] relates to PrEC. In words: Cell viability assay (CellTiter-Glo, 5 days). The data set is classed as cell-based. Conditions: Homo sapiens, 120 h, 5 days of treatment, Figure 1F. Here is the method: as §1
Data set [17] has as its system RWPE1. In words: Cell viability assay (CellTiter-Glo, 5 days). The class given is cell-based. Conditions: Homo sapiens, RWPE-1, 120 h; RWPE1, 5 days of treatment, Figure 1F. Here is the method:
as §1

Data set [18] deals with SK-BR-3. In words: Cell viability assay (CellTiter-Glo, 5 days). The data set is classed as cell-based. The note with it: Homo sapiens, 120 h; SK-BR-3, 5 days of treatment, Figure 1F. Here is the method:
as §1

Data set [19] concerns WPMY-1. In words: Cell viability assay (CellTiter-Glo, 5 days). The class given is cell-based. The note with it: Homo sapiens, 120 h; WPMY-1, 5 days of treatment, Figure 1F. Here is the method:
as §1

Data set [20] has as its system VCaP cells. In words: Comet assay. The class given is cell-based, human. The note with it: 100 nM, 12 h. Here is the method:
VCaP cells were seeded in 6-well plates one day prior to treatment. […] After 12 h incubation, the cells were trypsinized and resuspended at a concentration of 1 × 10^5 cells/mL in ice-cold PBS. The OxiSelect Comet Assay Kit (Cell Biolabs, STA-351) was used to assess DNA damage. Following the manufacturer’s protocol, cells were combined with pre-heated comet agarose at a 1:10 ratio, mixed thoroughly, and then transferred onto slides. The slides were incubated horizontally in the dark at 4°C for 20 min. Afterward, they were immersed in pre-chilled lysis buffer for 40 min at 4°C in the dark, followed by a 30-min incubation in pre-chilled alkaline solution at 4°C in the dark. Electrophoresis was then performed using alkaline solution at 30 V for 20 min. After electrophoresis, the slides were rinsed three times with pre-chilled deionized water, following with 70% ethanol for 5 min and completely dried at 37°C for 30 min. Subsequently, 100 μL of diluted Vista Green DNA dye was applied to each well. After 15 min incubation at room temperature, the comets were observed using a fluorescence microscope and quantified using ImageJ. The quantification figure was generated using GraphPad Prism software.

[21] abbreviates: VCaP cell viability, linker optimization, Figure S4B, read-out: VCaP IC50.
Where [22] appears, read: VCaP cells, 5 days, Figure S1E, read-out: IC50.

For `O=C1CCC(N2C(=O)c3ccc(OCC(=O)N4CCN(c5ccc(N(C(=O)NCc6ccccc6)C6CCC(Nc7ncc8ccccc8n7)CC6)cc5)CC4)cc3C2=O)C(=O)N1` (stereo not shown) [YJ1090], the half-inhibitory concentration (IC50) in data set [1] (setting [21]) is 93.8 nM. For the same compound, the “CDK12/13 degradation (immunoblot)” value in data set [2] is given as “retained the CDK12/13 degradation abilities”.

As to `O=C1CCC(N2C(=O)c3ccc(-c4cccc(C(=O)N5CCN(c6ccc(N(C(=O)NCc7ccccc7)C7CCC(Nc8ncc9ccccc9n8)CC7)cc6)CC5)c4)cc3C2=O)C(=O)N1` (stereo not shown) [YJ1130], the IC50 in data set [1] (setting [21]) was found to be 126 nM. Besides, the “CDK12/13 degradation (immunoblot)” value in data set [2] was “significantly decreased CDK12/13 degradation and cell viability”.

As for `O=C1CCC(N2Cc3ccc(OCC(=O)N4CCN(c5ccc(N(C(=O)NCc6ccccc6)C6CCC(Nc7ncc8ccccc8n7)CC6)cc5)CC4)cc3C2=O)C(=O)N1` (stereo not shown) [YJ1094], in [1] (setting [21]), the IC50 is 25.2 nM. Further, in data set [2], the “CDK12/13 degradation (immunoblot)” value is on record as “retained the CDK12/13 degradation abilities”.

Turning to `O=C(NCc1ccccc1)N(c1ccc(N2CCNCC2)cc1)[C@H]1CC[C@H](Nc2ncc3ccccc3n2)CC1` [YJ9068], the IC50 in data set [1] (setting [22]) was 1080 nM. Also, in data set [2], the “CDK12/13 degradation (immunoblot)” value is recorded as “did not affect target protein levels”.

As to `O=C1CCC(N2C(=O)c3ccc(C=CC(=O)N4CCN(c5ccc(N(C(=O)NCc6ccccc6)C6CCC(Nc7ncc8ccccc8n7)CC6)cc5)CC4)cc3C2=O)C(=O)N1` (stereo not shown) [YJ1114], in data set [1] (setting [21]), the IC50 was found to be 2020 nM. Further, the “CDK12/13 degradation (immunoblot)” value in data set [2] is “significantly decreased CDK12/13 degradation and cell viability”.

As for `O=C1CCC(N2C(=O)c3ccccc3C2=O)C(=O)N1` (stereo not shown) [thalidomide, reference compound], the “CDK12/13 degradation (immunoblot)” value in data set [2] was “did not affect target protein levels”.

As to `O=C1CCC(N2C(=O)c3ccc(N4CCC(N5CCN(c6ccc(N(C(=O)NCc7ccccc7)C7CCC(Nc8ncc9ccccc9n8)CC7)cc6)CC5)C4)cc3C2=O)C(=O)N1` (stereo not shown) [YJ1096], the half-maximal inhibitory concentration (IC50) in [1] (setting [21]) stood at 97.8 nM. Besides, the “CDK12/13 degradation (immunoblot)” value in [2] is “significantly decreased CDK12/13 degradation and cell viability”.

Take `O=C1CCC(N2C(=O)c3ccc(N4CCC(N5CCN(c6ccc(N(C(=O)NCc7ccccc7)C7CCC(Nc8ncc9ccccc9n8)CC7)cc6)CC5)CC4)cc3C2=O)C(=O)N1` (stereo not shown) [YJ1105]: in [1] (setting [21]), the half-maximal inhibitory concentration (IC50) was 15.1 nM and < 20 nM. In addition, the “CDK12/13 degradation (immunoblot)” value in [2] is given as “potent degradation effects”. Also, in [3] (i.v. 2.5 mg/kg), the “AUC(0-t)” value amounted to 8039.69 ng·h/mL, the CL was 4.8027 mL/min/kg, the concentration peaked (Cmax) at 1580 nM and the T1/2 was found to be 7.05 h. Also, the Tmax in data set [3] (i.v. 2.5 mg/kg) was 0.08 h. In data set [3] (oral 10 mg/kg), the “AUC(0-)” value worked out at 9805.4 ng·h/mL, the “AUC(0-t)” value was determined as 8567.43 ng·h/mL, the Cmax is 715 nM and the T1/2 came to 7.2 h. The Tmax in data set [3] (oral 10 mg/kg) was 6 h. The “F(%) (bioavailability by oral gavage)” value in [3] (oral 10 mg/kg vs i.v. 2.5 mg/kg) amounted to 26.64%.

Turning to `CN(C)C/C=C/C(=O)Nc1ccc(C(=O)N2CCC[C@@H](Nc3ncc(Cl)c(-c4c[nH]c5ccccc45)n3)C2)cc1` [THZ531, reference compound], the IC50 in data set [1] (Homo sapiens, VCaP, 120 h, VCaP, 5 days of treatment, Figure 1F, read-out: IC50) was 33.5 nM; in data set [4], 85.7 nM; in [5], 356 nM; in data set [6], 69.7 nM; in [7], 230 nM; in data set [8], 6.38 nM. Moreover, the 50% inhibitory concentration (IC50) in [9] stood at 396 nM; in [10], 310 nM; in [11] it was 356 nM; in [12], 158 nM; in [13], 33.3 nM; in [14] it was 120 nM. Besides, the IC50 was 1530 nM in data set [15]; 335 nM in data set [16]; 404 nM in data set [17]; 64.8 nM in data set [18]; 311 nM in data set [19]. In addition, in [20], the “DNA damage (tail moment)” value is listed as “significant increase in the tail moment”.

Take `CN1C(=O)CCC(N2C(=O)c3cccc(OCC(=O)N4CCN(c5ccc(N(C(=O)NCc6ccccc6)C6CCC(Nc7ncc8ccccc8n7)CC6)cc5)CC4)c3C2=O)C1=O` (stereo not shown) [YJ1078]: the IC50 in [1] (setting [22]) was greater than 3000 nM. The “CDK12/13 degradation (immunoblot)” value in data set [2] was “did not affect target protein levels”.

Regarding `O=C1CCC(N2C(=O)c3ccc(N4CCC(N5CCN(c6ccc(N(C(=O)NCc7ccccc7)C7CCC(Nc8ncc9ccccc9n8)CC7)cn6)CC5)CC4)cc3C2=O)C(=O)N1` (stereo not shown) [YJ1205], the “CDK12/13 degradation (immunoblot)” value in data set [2] is reported as “potent degradation effects”. Further, in data set [3] (i.v. 2.5 mg/kg), the “AUC(0-)” value amounted to 10615.68 ng·h/mL, the “AUC(0-t)” value is 10519.6 ng·h/mL, the CL amounted to 3.9307 mL/min/kg and the Cmax is 4140 nM. Besides, in data set [3] (i.v. 2.5 mg/kg), the T1/2 amounted to 3.81 h and the time to peak (Tmax) was determined as 0.08 h. In addition, in [3] (oral 10 mg/kg), the “AUC(0-)” value was found to be 6842.8 ng·h/mL, the “AUC(0-t)” value came out at 6679.0 ng·h/mL, the concentration peaked (Cmax) at 660 nM and the T1/2 came to 4.2 h. The Tmax in [3] (oral 10 mg/kg) worked out at 4.7 h.
